Source: US9073855B2, “BCL-2 selective apoptosis-inducing agents for the treatment of cancer and immune diseases” (AbbVie Inc., priority 2008, dated 2015)

How the values were obtained:
GST-Bcl-2 = GST-Bcl-2 (Homo sapiens, UniProt P10415); assay: TR-FRET binding assay, GST-Bcl-2 with F-Bak peptide probe; details: TR-FRET Binding Affinity, GST-Bcl-2, F-Bak peptide probe
How it was run: (§1)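 Compounds were serially diluted in DMSO from a 50 μM starting solution (2× the starting concentration; 10% DMSO). Plates were incubated for 3 h at room temperature, and TR-FRET was read with 340/35 nm excitation and emission at 520/525 nm (F-Bak) and 495/510 nm (Tb antibody). Ki values were calculated using Wang's competitive-binding equation.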

GST-Bcl-XL = GST-Bcl-XL (Homo sapiens, UniProt Q07817); assay: TR-FRET binding assay, GST-Bcl-XL with F-Bak peptide probe; details: TR-FRET Binding Affinity, GST-Bcl-XL, F-Bak peptide probe
How it was run: as §1

FL5.12/Bcl-2 cells = assay: FL5.12/Bcl-2 cell viability assay under IL-3 withdrawal (CellTitre Glo); type: cell-based, murine; details: Mus musculus, IL-3 withdrawn 48 hrs, then 24 hrs with compound
How it was run: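 Viability measured with CellTiter-Glo after 24 h compound treatment at various concentrations, following 48 h IL-3 withdrawal (no WEHI-3B medium). Cells: prolymphocytic mouse FL5.12 line stably transfected to overexpress Bcl-2, cultured at 37 °C, 5% CO2.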

Sequence of GST-Bcl-XL (Q07817 whole entry): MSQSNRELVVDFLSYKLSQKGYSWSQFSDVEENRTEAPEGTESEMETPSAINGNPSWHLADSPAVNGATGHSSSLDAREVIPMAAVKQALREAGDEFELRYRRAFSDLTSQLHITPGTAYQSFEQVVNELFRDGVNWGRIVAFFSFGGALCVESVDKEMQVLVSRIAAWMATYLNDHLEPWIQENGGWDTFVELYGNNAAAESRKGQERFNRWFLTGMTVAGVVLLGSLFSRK
Sequence of GST-Bcl-2 (P10415 whole entry): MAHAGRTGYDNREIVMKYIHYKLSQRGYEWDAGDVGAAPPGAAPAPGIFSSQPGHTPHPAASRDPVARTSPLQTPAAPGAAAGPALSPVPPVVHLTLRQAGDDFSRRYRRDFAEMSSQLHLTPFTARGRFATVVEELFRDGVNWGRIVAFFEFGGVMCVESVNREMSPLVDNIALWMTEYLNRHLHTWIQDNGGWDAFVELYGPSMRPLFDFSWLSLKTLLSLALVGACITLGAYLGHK

Row | Structure (SMILES) | Ki (GST-Bcl-2) [nM] | Ki (GST-Bcl-XL) [nM] | EC50 (FL5.12/Bcl-2 cells) [nM]
1 | COCCNc1ccc(S(=O)(=O)NC(=O)c2ccc(N3CCN(CC4=C(c5ccc(Cl)cc5)CC(C)(C)CC4)CC3)cc2Oc2cccc3[nH]ccc23)cc1[N+](=O)[O-] [Example 239, 4-(4-{[2-(4-chlorophenyl)-4,4-dimethylcyclohex-1-en-1-yl]methyl}piperazin-1-yl)-2-(1H-indol-4-yloxy)-N-({4-[(2-methoxyethyl)amino]-3-nitrophenyl}sulfonyl)benzamide] | 0.252 | 108 | 17.6
2 | CC1(C)CCC(CN2CCN(c3ccc(C(=O)NS(=O)(=O)c4ccc(NC5(CO)CCOCC5)c([N+](=O)[O-])c4)c(Oc4ccc5[nH]ccc5c4)c3)CC2)=C(c2ccc(Cl)cc2)C1 [Example 240, 4-(4-{[2-(4-chlorophenyl)-4,4-dimethylcyclohex-1-en-1-yl]methyl}piperazin-1-yl)-N-[(4-{[4-(hydroxymethyl)tetrahydro-2H-pyran-4-yl]amino}-3-nitrophenyl)sulfonyl]-2-(1H-indol-5-yloxy)benzamide] | 0.83 | > 660 | 209
3 | CC1(C)CCC(CN2CCN(c3ccc(C(=O)NS(=O)(=O)c4ccc(NC(CO)C5CCOCC5)c([N+](=O)[O-])c4)c(Oc4ccc5[nH]ccc5c4)c3)CC2)=C(c2ccc(Cl)cc2)C1 (stereo not drawn) [Example 242, 4-(4-{[2-(4-chlorophenyl)-4,4-dimethylcyclohex-1-en-1-yl]methyl}piperazin-1-yl)-N-({4-[(2-hydroxy-1-tetrahydro-2H-pyran-4-ylethyl)amino]-3-nitrophenyl}sulfonyl)-2-(1H-indol-5-yloxy)benzamide] | 1.8 | > 660 | 165
4 | CC1(C)CCC(CN2CCN(c3ccc(C(=O)NS(=O)(=O)c4ccc(NC5CCN(CCn6cccn6)CC5)c([N+](=O)[O-])c4)c(Oc4ccc5[nH]ccc5c4)c3)CC2)=C(c2ccc(Cl)cc2)C1 [Example 243, 4-(4-{[2-(4-chlorophenyl)-4,4-dimethylcyclohex-1-en-1-yl]methyl}piperazin-1-yl)-2-(1H-indol-5-yloxy)-N-{[3-nitro-4-({1-[2-(1H-pyrazol-1-yl)ethyl]piperidin-4-yl}amino)phenyl]sulfonyl}benzamide] | 0.28 | > 660 | 28
5 | CC1(C)CCC(CN2CCN(c3ccc(C(=O)NS(=O)(=O)c4ccc(NCC5CCOCC5)c([N+](=O)[O-])c4)c(Oc4cccc5[nH]ccc45)c3)CC2)=C(c2ccc(Cl)cc2)C1 [Example 244, 4-(4-{[2-(4-chlorophenyl)-4,4-dimethylcyclohex-1-en-1-yl]methyl}piperazin-1-yl)-2-(1H-indol-4-yloxy)-N-({3-nitro-4-[(tetrahydro-2H-pyran-4-ylmethyl)amino]phenyl}sulfonyl)benzamide] | 0.16 | > 660 | 20.2
6 | CNc1ccc(S(=O)(=O)NC(=O)c2ccc(N3CCN(CC4=C(c5ccc(Cl)cc5)CC(C)(C)CC4)CC3)cc2Oc2ccc3[nH]ccc3c2)cc1[N+](=O)[O-] [Example 245, 4-(4-{[2-(4-chlorophenyl)-4,4-dimethylcyclohex-1-en-1-yl]methyl}piperazin-1-yl)-2-(1H-indol-5-yloxy)-N-{[4-(methylamino)-3-nitrophenyl]sulfonyl}benzamide] | 1.62 | > 660 | 72.4
7 | CNc1ccc(S(=O)(=O)NC(=O)c2ccc(N3CCN(CC4=C(c5ccc(Cl)cc5)CC(C)(C)CC4)CC3)cc2Oc2cccc3[nH]ccc23)cc1[N+](=O)[O-] [Example 246, 4-(4-{[2-(4-chlorophenyl)-4,4-dimethylcyclohex-1-en-1-yl]methyl}piperazin-1-yl)-2-(1H-indol-4-yloxy)-N-{[4-(methylamino)-3-nitrophenyl]sulfonyl}benzamide] | 0.783 | 384 | 48
